# Read-outs that look alike come from different tables or passages of the source.
# System: patients with chronic heart failure with reduced ejection fraction (LVEF ≤40%)
# Text: Eligibility requirements included an age of at least 18 years, New York Heart Association (NYHA) class II, III, or IV symptoms, and an ejection fraction of 40% or less. […] Patients with atrial fibrillation or atrial flutter on their baseline electrocardiogram were required to have a NT-proBNP level of at least 900 pg/mL, irrespective of history of heart failure hospitalization. Patients were required to receive standard drug and device therapy for heart failure including an angiotensin-converting enzyme (ACE) inhibitor, angiotensin receptor blocker (ARB), or sacubitril/valsartan; a beta-blocker, unless contraindicated or not tolerated, and a mineralocorticoid receptor (MR) […], if considered appropriate. Doses were required to be individually optimized, in accordance with the targets recommended in guidelines, and stable for at least 4 weeks (excepting diuretics, which could be dosed flexibly). Investigators were advised that patients with type 2 diabetes should continue to take their glucose-lowering therapies, but these could be adjusted as required. Specifically, the protocol stated that the dose of insulin, sulfonylurea treatment, or both, could be reduced to minimize the risk of hypoglycemia, for example in patients with a baseline hemoglobin A1C (HbA1c) level below 7%.
# All the patients provided written informed consent and entered a 14-day enrollment period during which the trial inclusion and exclusion criteria were checked and baseline information gathered, including findings from clinical examination and laboratory measurements. […] Investigators used an interactive voice or web response system to obtain treatment assignment. Randomization was stratified based on a diagnosis of type 2 diabetes, defined as either an established diagnosis or a HbA1c level of 6.5% or greater (≥48 mmol/mol) confirmed in a central laboratory at screening. Patients were evaluated at 14 days and 60 days after randomization, with a focus on assessment of heart failure and volume status, adverse events, and checking renal function and potassium. Further study visits took place at 4 months and at 4-month intervals thereafter. The protocol required that study drug be permanently discontinued if pregnancy or diabetic ketoacidosis occurred.
# The primary outcome was a composite of a first episode of worsening heart failure or death from cardiovascular causes. An episode of worsening heart failure was either an unplanned hospitalization for heart failure or an urgent heart failure visit requiring intravenous therapy.^14 The first of the secondary outcomes was the composite of heart failure hospitalization or cardiovascular death.
# Outcomes were adjudicated by a clinical-end-points committee, blinded to treatment assignment, according to prespecified criteria.
# Using a two-sided alpha of 5%, we calculated that 844 primary endpoints would provide a statistical power of 90% for the test of the hypothesis. With an expected annual event rate of 11% in the placebo treatment group, approximately 4500 patients were estimated to provide the required number of primary events, based on an anticipated recruitment period of 18 months and an average follow-up period of approximately 24 months. A closed testing procedure was used, including a prespecified hierarchical testing of the primary and secondary endpoints in the order specified above. Type I error was controlled at a two-sided 0.0499 alpha level for multiplicity across primary and secondary endpoints and taking account of one interim efficacy analysis.
# Data from all randomly assigned patients were included in the analyses of the primary and secondary outcomes, according to the intention-to-treat principle. Baseline characteristics were summarized as means and standard deviations, medians and inter-quartile ranges, or percentages.
structure (smiles),measurement,setting,value
"CCOc1ccc(Cc2cc([C@@H]3O[C@H](CO)[C@@H](O)[C@H](O)[C@H]3O)ccc2Cl)cc1 [Dapagliflozin, dapagliflozin]","Cardiovascular death or hospitalization for heart failure, No. (%)",No T2DM (N = 1298),169 (13.0) No. (%)
same,"Cardiovascular death or hospitalization for heart failure, Subjects with Event/100 Patient-Yr",No T2DM (N = 1298),9.1 Event/100 Patient-Yr
same,"Cardiovascular death, No. (%)",No T2DM (N = 1298),106 (8.2) No. (%)
same,"Cardiovascular death, Subjects with Event/100 Patient-Yr",No T2DM (N = 1298),5.5 Event/100 Patient-Yr
same,"Death from any cause, No. (%)",No T2DM (N = 1298),133 (10.3) No. (%)
same,"Death from any cause, Subjects with Event/100 Patient-Yr",No T2DM (N = 1298),6.9 Event/100 Patient-Yr
same,"Hospitalization for heart failure or an urgent heart failure visit, No. (%)",No T2DM (N = 1298),95 (7.3) No. (%)
same,"Hospitalization for heart failure or an urgent heart failure visit, Subjects with Event/100 Patient-Yr",No T2DM (N = 1298),5.1 Event/100 Patient-Yr
same,"Hospitalization for heart failure, No. (%)",No T2DM (N = 1298),93 (7.2) No. (%)
same,"Hospitalization for heart failure, Subjects with Event/100 Patient-Yr",No T2DM (N = 1298),5.0 Event/100 Patient-Yr
same,"Primary composite outcome, No. (%)",No T2DM (N = 1298),171 (13.2) No. (%)
same,"Primary composite outcome, Subjects with Event/100 Patient-Yr",No T2DM (N = 1298),9.2 Event/100 Patient-Yr
same,Total number of (first and recurrent) heart failure hospitalizations and cardiovascular death,No T2DM (N = 1298),239
same,"Urgent heart failure visit, No. (%)",No T2DM (N = 1298),3 (0.2) No. (%)
same,"Urgent heart failure visit, Subjects with Event/100 Patient-Yr",No T2DM (N = 1298),0.2 Event/100 Patient-Yr
same,"Worsening renal function (composite), No. (%)",No T2DM (N = 1298),10 (0.8) No. (%)
same,"Worsening renal function (composite), Subjects with Event/100 Patient-Yr",No T2DM (N = 1298),0.5 Event/100 Patient-Yr
same,"Cardiovascular death or hospitalization for heart failure, No. (%)",T2DM (N = 1075),213 (19.8) No. (%)
same,"Cardiovascular death or hospitalization for heart failure, Subjects with Event/100 Patient-Yr",T2DM (N = 1075),14.4 Event/100 Patient-Yr
same,"Cardiovascular death, No. (%)",T2DM (N = 1075),121 (11.3) No. (%)
same,"Cardiovascular death, Subjects with Event/100 Patient-Yr",T2DM (N = 1075),7.7 Event/100 Patient-Yr
same,"Death from any cause, No. (%)",T2DM (N = 1075),143 (13.3) No. (%)
same,"Death from any cause, Subjects with Event/100 Patient-Yr",T2DM (N = 1075),9.1 Event/100 Patient-Yr
same,"Hospitalization for heart failure or an urgent heart failure visit, No. (%)",T2DM (N = 1075),142 (13.2) No. (%)
same,"Hospitalization for heart failure or an urgent heart failure visit, Subjects with Event/100 Patient-Yr",T2DM (N = 1075),9.6 Event/100 Patient-Yr
same,"Hospitalization for heart failure, No. (%)",T2DM (N = 1075),138 (12.8) No. (%)
same,"Hospitalization for heart failure, Subjects with Event/100 Patient-Yr",T2DM (N = 1075),9.3 Event/100 Patient-Yr
same,"Primary composite outcome, No. (%)",T2DM (N = 1075),215 (20.0) No. (%)
same,"Primary composite outcome, Subjects with Event/100 Patient-Yr",T2DM (N = 1075),14.6 Event/100 Patient-Yr
same,Total number of (first and recurrent) heart failure hospitalizations and cardiovascular death,T2DM (N = 1075),328
same,"Urgent heart failure visit, No. (%)",T2DM (N = 1075),7 (0.7) No. (%)
same,"Urgent heart failure visit, Subjects with Event/100 Patient-Yr",T2DM (N = 1075),0.4 Event/100 Patient-Yr
same,"Worsening renal function (composite), No. (%)",T2DM (N = 1075),18 (1.7) No. (%)
same,"Worsening renal function (composite), Subjects with Event/100 Patient-Yr",T2DM (N = 1075),1.2 Event/100 Patient-Yr
same,"Cardiovascular death or hospitalization for heart failure, Events/100 Patient-Yr",all patients (N = 2373),11.4 Events/100 Patient-Yr
same,"Cardiovascular death or hospitalization for heart failure, No. (%)",all patients (N = 2373),382 (16.1) No. (%)
same,"Cardiovascular death, Events/100 Patient-Yr",all patients (N = 2373),6.5 Events/100 Patient-Yr
same,"Cardiovascular death, No. (%)",all patients (N = 2373),227 (9.6) No. (%)
same,"Death from any cause, Events/100 Patient-Yr",all patients (N = 2373),7.9 Events/100 Patient-Yr
same,"Death from any cause, No. (%)",all patients (N = 2373),276 (11.6) No. (%)
same,"Hospitalization for heart failure or an urgent heart failure visit, Events/100 Patient-Yr",all patients (N = 2373),7.1 Events/100 Patient-Yr
same,"Hospitalization for heart failure or an urgent heart failure visit, No. (%)",all patients (N = 2373),237 (10.0) No. (%)
same,"Hospitalization for heart failure, Events/100 Patient-Yr",all patients (N = 2373),6.9 Events/100 Patient-Yr
same,"Hospitalization for heart failure, No. (%)",all patients (N = 2373),231 (9.7) No. (%)
same,"Primary composite outcome, Events/100 Patient-Yr",all patients (N = 2373),11.6 Events/100 Patient-Yr
same,Total number of (first and recurrent) heart failure hospitalizations and cardiovascular death,all patients (N = 2373),567
same,"Urgent heart failure visit, Events/100 Patient-Yr",all patients (N = 2373),0.3 Events/100 Patient-Yr
same,"Urgent heart failure visit, No. (%)",all patients (N = 2373),10 (0.4) No. (%)
same,"Worsening renal function (composite), Events/100 Patient-Yr",all patients (N = 2373),0.8 Events/100 Patient-Yr

# From US11903955B2, “Methods of treating heart failure with reduced ejection fraction” (ASTRAZENECA AB, priority 2019, dated 2024)
